# How the values were obtained:
# [1] = test system: human oral keratinocytes; assay: Cytotoxicity assay (MTT reduction, FIG. 6); format: cell-based; conditions: primary human oral keratinocytes; at effective concentration
# Experimental: (§1) FIG. 6. MTT reduction assay of primary culture human monocytes, gingival fibroblasts and oral keratinocytes showing safety of SM21.
# (§2) Next, we used mouse model and treated the animals with 100 times of the effective dose (2 μg) i.e. 200 μg of SM21 twice a day for five days.
# [2] = test system: human gingival fibroblasts; assay: Cytotoxicity assay (MTT reduction, FIG. 6); format: cell-based; conditions: primary human gingival fibroblasts; at effective concentration
# Experimental: as §1, §2
# [3] = test system: human monocytes; assay: Cytotoxicity assay (MTT reduction, FIG. 6); format: cell-based; conditions: primary human monocytes; at effective concentration
# Experimental: as §1, §2
# [4] = test system: C. glabrata drug resistant isolates; assay: Susceptibility of multidrug resistant clinical isolates, CLSI M27A broth microdilution; format: cell-based, Candida glabrata
# Excerpt: (§3) Oral Biosciences laboratory has one of the largest collections of fungal isolates, particular that of Candida species in the world. In our previous studies, we have found multidrug resistant clinical isolates of Candida species against existing antifungals. In particular, some of these strains are resistant to best antifungal agents to date such as caspofungin, amphotericin B and fluconazole. Therefore, we performed antifungal susceptibility testing for SM21 against these drug resistant Candida isolates suing CLSI M27A brothmicrodultion assay and CLSI M44-A disc diffusion assay.
# [5] = test system: C. krusei biofilms; assay: Mono species Candida biofilm MIC, XTT assay; format: cell-based; conditions: 48 h C. krusei biofilms
# Experimental: (§4) For instance, we have previously shown the resistance of Candida biofilms against amphotericin and caspofungin. Therefore, next using standard biofilm assays we have established in our laboratory, we examined the effect of SM21 against Candida biofilms. In brief, Candida cells were grown in SDA medium at 37° C. for 18 h. Then a loopful of the yeast was inoculated into the yeast nitrogen base (YNB; Difco) medium supplemented with 50 mM glucose in a rotary shaker at 75 rpm. After overnight broth culture, the yeasts were harvested in the late exponential growth phase and washed twice with 20 ml of phosphate buffer saline (PBS; pH 7.2. 0.1 M) prior to use in the biofilm studies. Candida biofilms were developed according to a previously published protocol. In brief, washed yeast cells were resuspended in YNB supplemented with 100 mM glucose and adjusted to an optical density of 0.38 at 520 nm (1×10^7 cells/ml). The standard cell suspension was used immediately to develop biofilms on commercially available presterilized, polystyrene, 96-well plate (IWAKI, Tokyo, Japan). At first, 100 μl of standardized cell suspension (1×10^7 cells/ml) was pipetted into each well of a microtiter plate and incubated for 1.5 h at 37° C. in a shaker at 75 rpm to permit yeast adherence to the well surface (adherence phase). For controls, a well of each microtiter plate was handled in an identical fashion except that no Candida suspension was added. Following the adhesion phase, the cell suspensions were aspirated, and each well washed with 100 μl of PBS to remove loosely adherent cells. 200 μl of YNB with 100 mM glucose were then pipetted into each of the washed wells and the plates incubated at 37° C. in a shaker at 75 rpm for 24 or 48 h. After biofilm growth phase microscopic examination of the cultures were performed to rule out contamination. Then, the suspending medium was aspirated and biofilms were washed with 100 μl PBS to remove the nonadherent cells. The stock solutions were diluted twofold with RPMI 1640 supplemented with 2% glucose to obtain SM21 concentration from 100 to 0.2 μg/ml drug concentrations. In parallel, other antifungal agents such as caspofungin (100 to 0.1 μg/ml) and amphotericin B (240 μg/ml to 0.225 μg/ml) was also prepared as describe above. A total of 100 μl of drug solution was added to the microtiter plate containing Candida biofilms. Biofilms were then incubated at 37° C. for 24 h with the antifungals and afterwards metabolic activity of fungal cells was determined by the XTT [2,3-bis(2-methoxy-4-nitro-5-sulfophenyl)-2H-tetrazolium-5-carboxanilide sodium salt] assay (17, 28). Candida biofilm MIC90 was defined as the lowest drug concentration with 90% reduction in opacity compared with the drug free control. Each experiment was repeated three times with four replicates.
# [6] = test system: C. glabrata biofilms; assay: Mono species Candida biofilm MIC, XTT assay; format: cell-based; conditions: 48 h C. glabrata biofilms
# Experimental: as §4
# [7] = test system: C. tropicalis drug resistant isolates; assay: Susceptibility of multidrug resistant clinical isolates, CLSI M27A broth microdilution; format: cell-based, Candida tropicalis; conditions: resistant to Itraconazole
# Excerpt: as §3
# [8] = test system: C. albicans SC5314 and C. albicans ATCC 90028; assay: Antifungal activity compared with caspofungin and amphotericin B (FIG. 2, CLSI M44-A disc diffusion); format: cell-based, Candida albicans
# Excerpt: as §3
# [9] = test system: Vero cell line; assay: Cytotoxicity assay; format: cell-based; conditions: at effective concentration
# [10] = test system: C. albicans; assay: Antifungal susceptibility (MIC/MFC), CLSI criteria, 96-well double dilution; format: cell-based, Candida albicans; conditions: for Susceptibility (MIC90): 0.5 McFarland inoculum (10^6 cells/ml)
# Experimental: Antifungal activity of the small molecules was evaluated using USA standards, Clinical and Laboratory Standards Institute (CLSI) criteria. In brief, inocula from 24 h Candida cultures on Sabourauds's dextore agar were standardized to a turbidity equivalent of 0.5 McFarland standards at 520 nm with a spectrophotometer. The suspensions were further diluted in Rosewell Park Memorial Institute (RPMI) 1640 medium (Life technologies, New York, USA) to yield an inoculum concentration of approximately 0.5 1×10^3 to 2.5 1×10^3 cells/ml. Minimum inhibitory concentration (MIC) and minimum fungicidal concentration (MFC) assay was performed in 96-well plates (Iwaki, Tokyo, Japan) and each of the Candida species was exposed to a double dilution of SM21. Amphotericin B was used as a positive control. All the experiments were preformed three occasions with duplicates for all isolates. The plates were incubated at 35° C. for 48 h to evaluate MIC. In the case of Cryotococcus neoformans, reading were taken after 72 h. Aforementioned assay was performed for C. albicans ATCC 90028, C. albicans SC5314 and 10 C. albicans clinical isolates. Moreover, MIC/MFC determination was carried out for other fungal species such as C. glabrata, C. krusei, C. tropicalis, C. parapsilosis, C. neoformans, Aspergillus fumigates and Penicillium marneffei. […] Next using dose-dependent assay we tested that MIC/MFC of SM21 from 10^3 cells/ml to 10^7 cells/ml of C. albicans (Table 2). Each of the foregoing experiment was repeated on three different occasions.
# [11] = test system: C. albicans drug resistant isolate; assay: Susceptibility of multidrug resistant clinical isolates, CLSI M27A broth microdilution; format: cell-based, Candida albicans; conditions: C. albicans T1675; resistant to Fluconazole, Itraconazole
# Excerpt: as §3
compound,measurement,setting,value
CN(C)c1ccc(/C=C/c2cc(C(C)(C)C)[o+]c(C(C)(C)C)c2)cc1.[O-][Cl+3]([O-])([O-])[O-] [SM21],Cytotoxicity,[1],no cytotoxicity
same,Cytotoxicity,[2],no cytotoxicity
same,Cytotoxicity,[3],no cytotoxicity
same,MIC,"[4]; C. glabrata 1570, resistant to Itraconazole",0.5 µg/mL
same,MIC,"[4]; C. glabrata T1585, resistant to Fluconazole, Itraconazole, ketoconazole, Voriconazole",1 µg/mL
same,MIC,"[4]; C. glabrata T1672, resistant to Itraconazole, Ketaconazole",0.5 µg/mL
same,Minimum inhibitory concentration of 48 h Candida biofilms,[5],25 µg/mL
same,Minimum inhibitory concentration of 48 h Candida biofilms,[6],25 µg/mL
same,MIC,[7]; C. tropicalis T789,1 µg/mL
same,MIC,[7]; C. tropicalis T1148,0.5 µg/mL
same,MIC,[7]; C. tropicalis T1427,1 µg/mL
same,Susceptibility of the strain to the agent,"[8]; C. albicans ATCC 90028, CLSI quality control strain (FIG. 2B)",susceptible
same,Susceptibility of the strain to the agent,[8]; C. albicans SC5314 (FIG. 2A),susceptible
same,Cytotoxicity,[9],no cytotoxicity
same,Antifungal activity against clinical isolates,[10]; 20 C. albicans strains isolated from HIV/AIDS patients,active against all isolates
same,Susceptibility (MIC90),[10]; C. albicans ATCC 90028,0.2 µg/mL
same,Susceptibility (MIC90),[10]; C. albicans CL1,0.2 µg/mL
same,Susceptibility (MIC90),[10]; C. albicans CL2,0.2 µg/mL
same,Susceptibility (MIC90),[10]; C. albicans CL3,1.6 µg/mL
same,Susceptibility (MIC90),[10]; C. albicans CL4,0.8 µg/mL
same,Susceptibility (MIC90),[10]; C. albicans CL5,1.6 µg/mL
same,Susceptibility (MIC90),[10]; C. albicans CL6,1.6 µg/mL
same,Susceptibility (MIC90),[10]; C. albicans CL7,0.8 µg/mL
same,Susceptibility (MIC90),[10]; C. albicans CL8,0.8 µg/mL
same,Susceptibility (MIC90),[10]; C. albicans CL9,1.6 µg/mL
same,Susceptibility (MIC90),[10]; C. albicans CL10,1.6 µg/mL
same,Susceptibility (MIC90),[10]; C. albicans SC5314,0.2 µg/mL
same,MIC,[11],0.5 µg/mL
